{"source": "paper PMC3920478", "about": "“Small molecule-mediated refolding and activation of myosin motor function” (eLife, 2014)", "key": {"[1]": {"biological_target": "T1, Dd myosin-5 motor domain (Dictyostelium discoideum, UniProt P54697)", "T1 sequence (P54697 1-821 limits assumed)": "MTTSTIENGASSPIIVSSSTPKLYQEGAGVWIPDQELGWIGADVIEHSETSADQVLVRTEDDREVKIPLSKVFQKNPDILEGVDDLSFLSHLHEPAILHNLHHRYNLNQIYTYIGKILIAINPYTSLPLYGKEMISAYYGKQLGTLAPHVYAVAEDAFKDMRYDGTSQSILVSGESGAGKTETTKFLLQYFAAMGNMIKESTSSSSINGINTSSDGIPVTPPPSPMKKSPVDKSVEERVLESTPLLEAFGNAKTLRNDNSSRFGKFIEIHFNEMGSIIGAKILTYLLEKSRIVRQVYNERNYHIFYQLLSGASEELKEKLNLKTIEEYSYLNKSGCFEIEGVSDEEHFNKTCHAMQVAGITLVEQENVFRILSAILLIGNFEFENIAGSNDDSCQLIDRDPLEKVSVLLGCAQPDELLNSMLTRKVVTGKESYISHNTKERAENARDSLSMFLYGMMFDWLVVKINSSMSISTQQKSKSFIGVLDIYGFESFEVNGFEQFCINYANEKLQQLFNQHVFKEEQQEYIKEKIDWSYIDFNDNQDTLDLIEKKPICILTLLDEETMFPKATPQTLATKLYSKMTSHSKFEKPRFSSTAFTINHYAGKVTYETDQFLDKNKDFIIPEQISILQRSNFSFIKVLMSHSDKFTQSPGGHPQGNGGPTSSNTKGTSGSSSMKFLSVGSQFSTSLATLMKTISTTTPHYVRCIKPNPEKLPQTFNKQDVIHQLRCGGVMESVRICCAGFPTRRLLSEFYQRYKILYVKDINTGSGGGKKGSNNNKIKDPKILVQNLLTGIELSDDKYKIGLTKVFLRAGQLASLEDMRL", "test": "Direct binding to motor domain construct", "text": "(§1) Proteolytic fragments were further purified by actin-coprecipitation."}, "[2]": {"test_system": "Dd myosin-1B, -1C, -1D, -1E motor domains", "test": "Steady-state basal and actin-activated Mg2+-ATPase (NADH-coupled assay)", "type": "biochemical, Dictyostelium discoideum", "procedure": "Rabbit fast skeletal muscle heavy meromyosin (HMM) was prepared as described by [Margossian and Lowey (1982)]. Porcine β-cardiac myosin was prepared essentially as described by [Pant et al. (2009)] and [Jacques et al. (2008)] and further purified by gel filtration. S1 and HMM fragments were produced by proteolytic digestion of the full-length proteins with 0.05 mg/ml papain (10 min, 25°C) for S1 and with 0.1 mg/ml TLCK-treated α-chymotrypsin (15 min, 25°C) for HMM. Reactions were stopped with specific protease inhibitors for papain (10 µM E−64) and chymotrypsin (10 µM chymostatin, 1 mM benzamidine). Proteolytic fragments were further purified by actin-coprecipitation. Pellets were washed twice and myosin was extracted from the pellets using ATP containing buffer. Gel filtration was used to further increase purity of myosin S1 and HMM fragments. […]\nBasal and actin-activated Mg^2+-ATPase activities were measured using the NADH-coupled assay described previously ([Furch et al., 1998]) adapted for higher throughput screens for a temperature controlled plate reader (Multiscan FC, Thermo Scientific, Waltham, MA) at 25°C. […]"}, "[3]": {"biological_target": "T2, Dd myosin-2 motor domain (Dictyostelium discoideum, UniProt P08799)", "T2 sequence (P08799 1-761 limits assumed)": "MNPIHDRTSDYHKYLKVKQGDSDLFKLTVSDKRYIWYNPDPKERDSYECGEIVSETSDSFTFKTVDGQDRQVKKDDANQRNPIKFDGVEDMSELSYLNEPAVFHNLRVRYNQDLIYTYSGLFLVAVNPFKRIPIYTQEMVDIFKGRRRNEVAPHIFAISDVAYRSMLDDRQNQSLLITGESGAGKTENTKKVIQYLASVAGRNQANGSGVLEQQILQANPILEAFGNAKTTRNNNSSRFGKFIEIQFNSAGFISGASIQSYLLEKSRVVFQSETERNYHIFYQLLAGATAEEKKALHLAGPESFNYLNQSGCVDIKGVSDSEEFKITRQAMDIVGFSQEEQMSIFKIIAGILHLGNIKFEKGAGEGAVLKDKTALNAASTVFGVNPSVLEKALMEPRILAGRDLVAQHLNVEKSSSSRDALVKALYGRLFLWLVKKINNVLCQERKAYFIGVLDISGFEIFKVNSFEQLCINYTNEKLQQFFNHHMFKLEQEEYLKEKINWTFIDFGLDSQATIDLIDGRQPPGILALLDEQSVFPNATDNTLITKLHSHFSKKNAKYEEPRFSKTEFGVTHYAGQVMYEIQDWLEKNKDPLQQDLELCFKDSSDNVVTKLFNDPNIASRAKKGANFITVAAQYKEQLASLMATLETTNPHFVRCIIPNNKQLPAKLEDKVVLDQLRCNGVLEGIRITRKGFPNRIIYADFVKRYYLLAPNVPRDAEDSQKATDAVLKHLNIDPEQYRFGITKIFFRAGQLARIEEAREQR", "test": "Steady-state basal and actin-activated Mg2+-ATPase (NADH-coupled assay)", "type": "biochemical", "procedure": "as §1\n(§2) Basal and actin-activated Mg^2+-ATPase activities were measured using the NADH-coupled assay described previously ([Furch et al., 1998]) adapted for higher throughput screens for a temperature controlled plate reader (Multiscan FC, Thermo Scientific, Waltham, MA) at 25°C. EMD 57033 was added to the reaction mixture in the absence of nucleotide and incubated before the reaction was started by the addition of ATP. Control measurements were carried out in the absence of drug, as well as in the presence of according concentrations of the non-binding (−)-enantiomer EMD 57439 to account for possible absorption effects. […] Data points are mean values from 3 to 5 independent experiments. Error bars indicate standard deviations."}, "[4]": {"biological_target": "T3, Dd myosin-5b motor domain (Dictyostelium discoideum, UniProt P54697)", "T3 construct": "Dd myosin-5b motor domain; His tag; made in house; host or cells: Dictyostelium discoideum AX3-ORF+ cells", "T3 sequence (P54697 1-821 limits assumed)": "T1 sequence (P54697 1-821 limits assumed)", "test": "Steady-state basal and actin-activated Mg2+-ATPase (NADH-coupled assay)", "type": "biochemical", "procedure": "as §1, §2"}}, "data": [{"smiles": "COc1ccc(C(=O)N2CCCc3cc(C4=NNC(=O)SC4C)ccc32)cc1OC", "note": "(centres unmarked) [EMD 57033]", "values": [{"measurement": "Direct binding to the motor domain", "setting": "[1]", "result": "Direct binding of EMD 57033 to the motor domain was observed"}, {"measurement": "Normalized maximal ATPase activation (basal)", "setting": "[2]", "result": "no effect"}, {"measurement": "Normalized maximal ATPase activation (with 30 µM actin)", "setting": "[2]; 30 µM actin", "result": "no effect"}, {"measurement": "AC50", "setting": "[3]", "result": 25.8, "unit": "µM"}, {"measurement": "Normalized maximal ATPase activation (basal)", "setting": "[3]", "result": 1.4}, {"measurement": "Normalized maximal ATPase activation (with 30 µM actin)", "setting": "[3]; 30 µM actin", "result": 2.8}, {"measurement": "Basal ATP turnover relative to that expected for 100% active protein", "setting": "[3]; saturating EMD 57033", "result": 1.4, "unit": "fold"}, {"measurement": "AC50", "setting": "[4]", "result": 35.4, "unit": "µM"}, {"measurement": "Activation potency relative to β-cardiac myosin (weaker)", "setting": "[4]", "result": "fivefold"}, {"measurement": "Normalized maximal ATPase activation (basal)", "setting": "[4]", "result": 1.4}, {"measurement": "Normalized maximal ATPase activation (with 30 µM actin)", "setting": "[4]; 30 µM actin", "result": 1.6}]}]}
